Results on 4 molecules are retold here after article PMC11825922, “Molecular interactions, structural effects, and binding affinities between silver ions (Ag^+) and amyloid beta (Aβ) peptides” (Scientific Reports, 2025).

Like-named read-outs stand apart in the source and are kept apart here.

Assay [1] addresses Aβ peptides. The settings on record: cited from earlier work.
Assay [2] concerns the target T1, Aβ42 oligomers (Homo sapiens, UniProt P05067).
T1 construct: Synthetic lyophilized wildtype (wt) Aβ(1–42) peptide, abbreviated Aβ42; purchased JPT Peptide Technologies GmbH (Germany); host or cells: chemical synthesis
Briefly: BN-PAGE analysis of SDS-stabilized Aβ42 oligomers. The settings on record: 10, 100, 500 µM AgNO3, 100–120 µM Aβ42, 0.2% SDS, 37 °C 24 h. How it is done: (§1) The Aβ42 monomers were then used to prepare SDS-stabilized Aβ42 oligomers of approximately tetrameric size, using a previously published protocol[83] with the following modifications: the oligomers were prepared in D2O, at four-fold lower peptide concentration, and without the original dilution step[85]. The reaction mixture (100–120 μM Aβ42 in D2O-based PBS, containing 0.2% (6.9 mM) SDS) was incubated at 37 °C for 24 h together with either 0, 10, 100, or 500 µM AgNO3, respectively, and then flash-frozen in liquid N2 and stored at –20 °C for later analysis.
Homogeneous solutions of SDS-stabilized Aβ42 oligomers, prepared as described in Section “Preparation of Aβ42 oligomers” with either 0, 10, 100, or 500 µM silver nitrate, were analyzed with BN-PAGE using the Invitrogen system (ThermoFisher Scientific, USA). For this purpose, 4–16% Bis–Tris Novex gels (ThermoFisher Scientific, USA) were loaded with 10 μL of samples containing either Aβ42 monomers or Aβ42 oligomers with increasing concentrations of silver, calibrated against the Amersham High Molecular Weight calibration kit for native electrophoresis (GE Healthcare, USA). The gel was first run at 4 °C for 90 min and then stained with the Pierce Silver Staining kit according to the manufacturer’s instructions (ThermoFisher Scientific, USA). […]

The target of assay [3] is T1, Aβ42 oligomers. Nature of the assay: FTIR spectroscopy of SDS-stabilized Aβ42 oligomers. To be noted: 0–500 µM AgNO3; FTIR with BN-PAGE. How it is done: as §1
Fourier-transform infrared (FTIR) spectra of SDS-stabilized Aβ42 oligomers (prepared as described in Section “Preparation of Aβ42 oligomers” with 0–500 µM AgNO3) were recorded in transmission mode on a Tensor 37 FTIR spectrometer (Bruker Optik GmbH., Germany) equipped with a […] and a liquid nitrogen-cooled MCT detector. The unit was continuously purged with dry air during the measurements. […] The sample shuttle allowed sample and reference spectra to be recorded without opening the chamber. FTIR spectra were recorded at room temperature in the 1900–800 cm^–1 range, using 6 mm aperture, 2 cm^–1 resolution, a zero-filling factor of two, and 300 scans for both background and sample spectra. […] All spectra were analyzed and plotted using the OPUS 5.5 software. Second derivatives were calculated with a 17 cm^–1 smoothing factor. […]

In assay [4] the target is T2, Aβ40 peptide (Homo sapiens, UniProt P05067).
T2 construct: Aβ(1–40) and Aβ(1–42), here abbreviated Aβ40 and Aβ42; purchased AlexoTech AB (Umeå, Sweden)
T2 sequence (P05067 672-711 limits assumed): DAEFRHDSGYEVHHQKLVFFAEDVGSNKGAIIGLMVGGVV
Briefly: CD spectroscopy on Aβ secondary structure. The settings on record: 10 µM Aβ40, 20 mM phosphate buffer pH 7.3, 16–256 µM AgNO3, 20 °C. Here is the method:
Circular dichroism (CD) spectroscopy was performed with a Chirascan CD instrument (Applied Photophysics Ltd., U.K.) using a quartz cuvette with 2 mm pathlength containing 600 µL of 10 µM Aβ40 peptide in 20 mM phosphate buffer, pH 7.3. CD spectra were recorded at 20 °C between 190 and 260 nm, with 0.5 nm step size. One sample contained only Aβ40 in buffer, while another sample contained also 50 mM SDS detergent, in order to mimic a membrane environment. To both samples, AgNO3 was added in steps of 16 µM, 56 µM, and 256 µM. The Chirascan Pro-Data v.4.4.1 software (Applied Photophysics Ltd., U.K.) was used to process the recorded spectra with an eight points smoothing filter (Savitzky-Golay).
Figure 3 CD spectra of 10 μM Aβ40 peptide in 20 mM phosphate buffer, pH 7.3. AgNO3 was titrated to the peptide, either in (A): buffer only, or (B): with 50 mM SDS present. Black: Aβ40 in buffer. Orange: + 50 mM SDS (in B only). Red: + 16 µM AgNO3. Green: + 56 µM AgNO3. Blue: + 256 µM AgNO3.

In assay [5] the target is T3, Aβ40 peptide fibrils (Homo sapiens, UniProt P05067).
T3 construct: Aβ(1–40) and Aβ(1–42), here abbreviated Aβ40 and Aβ42; purchased AlexoTech AB (Umeå, Sweden)
T3 sequence (P05067 672-711 limits assumed): as above
Nature of the assay: AFM imaging of Aβ40 aggregates after 72 h incubation. To be noted: 30 µM AgNO3, 10 µM Aβ40, 72 h, 37 °C, 5 mM MES pH 7.3. Here is the method: Samples for AFM imaging were produced by incubating 10 µM Aβ40 peptides in 5 mM MES buffer, pH 7.3, for 72 h at 37 °C with continuous shaking at 350 rpm together with different amounts of AgNO3, i.e. 0 µM; 2.5 µM; 5 µM; and 30 µM (corresponding to Ag^+:Aβ ratios of 0:1; 1:4; 1:2; and 3:1, respectively). The incubated samples were placed as 1 µL droplets on fresh silicon wafers (Siegert Wafer GmbH, Germany). After 2 min, 10 µL of Milli-Q water was added to the droplets, and then a lint-free wipe was used to remove all excess fluid. Next, the wafers were left to air-dry in a container, covered to protect from dust, and later the same day AFM images were recorded. A neaSNOM AFM unit (Neaspec GmbH, Germany) was used, running in tapping mode (Ω: 280 kHz, tapping amplitude 50–55 nm) and equipped with Pt/Ir-coated monolithic ARROW-NCPt Si tips (NanoAndMore GmbH, Germany) where the tip radius was less than 10 nm. Both topographic and mechanical phase images were recorded for 2.5 × 2.5 µm scanning areas (pixel size 200 × 200) with a scan speed of 2.5 ms/pixel. The images were minimally processed to perform basic plane levelling using the Gwyddion software.
Figure 4 AFM images for 10 µM Aβ40 peptides together with different concentrations of AgNO3, incubated with agitation for 72 h at 37 °C in 5 mM MES buffer, pH 7.3. (A) 0 µM AgNO3; (B) 2.5 µM AgNO3; (C) 5 µM AgNO3; (D) 30 µM AgNO3. […]

Assay [6] deals with T4, wt Aβ40 peptide (Homo sapiens, UniProt P05067).
T4 construct: Aβ(1–40) and Aβ(1–42), here abbreviated Aβ40 and Aβ42; purchased AlexoTech AB (Umeå, Sweden)
T4 sequence (P05067 672-711 limits assumed): as above
Briefly: Tyr10 intrinsic fluorescence quenching titration with AgNO3, Morrison equation fit. In kind it is binding. To be noted: 20 mM MES buffer, 20 °C, read-out: Mean KD^App value. How it is done:
A Jobin Yvon Horiba Fluorolog 3 fluorescence spectrophotometer (Longjumeau, France) was used to record the fluorescence emission intensity at 305 nm (excitation wavelength 276 nm) for samples of 10 µM Aβ peptide in 20 mM MES buffer, using a quartz cuvette with 4 mm path length at 20 °C. Measurements were carried out at pH 7.2 for different Aβ variants, i.e. Aβ40, Aβ40(NoHis) mutant, Aβ40(H6A) mutant, and Aβ(4–40). For Aβ40, measurements were carried out also at pH 5.3, and at pH 7.2 in the presence of 50 mM SDS detergent. AgNO3 was titrated to the samples using stock solutions of 1 mM, 2 mM, and 10 mM. The measured tyrosine fluorescence intensities were plotted against the concentration of Ag^+ ions, and dissociation constants were evaluated by fitting the data curves to Eq. (1), i.e. the Morrison Equation [94]:1 I=I0+I∞-I0/2·Aβ·KD+Ag+Aβ-KD+Ag+Aβ^2-4·Ag·Aβ
Here, I0 is the initial fluorescence intensity with no added Ag^+ ions, I∞ is the steady-state intensity at the end of the titration, [Ag] is the concentration of added Ag^+ ions, KD is the dissociation constant, and [Aβ] is the concentration of Aβ peptide. […] Adding a linear term for the fluorescence quenching effect of free Ag^+ ions was considered unnecessary. […]
It is previously known that Ag^+ ions can quench the intrinsic fluorescence of amino acids such as tyrosines, including the Tyr10 residue in Aβ peptides. […]

T1 sequence (P05067 672-713 limits assumed): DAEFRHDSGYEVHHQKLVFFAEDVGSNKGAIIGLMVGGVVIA

Take `[Ni+2]` [Ni^2+]: in assay [1] (read-out: Binding affinity), the Kd is 1 to 50 µM.

For the molecule `[Cu+2]` [Cu^2+], in assay [1], the “Binding affinity” value was “sub-micromolar”. In addition, in assay [1] (fluorescence measurements, read-out: Binding affinity for the Aβ·Cu^2+ complex, corrected for buffer effects), the Kd was approximately 0.001 µM.

Take monovalent silver ions (Ag^+): in assay [2], the “Average sizes, amounts and size distributions of Aβ42 oligomers versus without silver” value is given as “approximately the same”. Moreover, the “Effect on size, secondary structure, β-sheet planarity and number of strands of Aβ42 oligomers” value in assay [3] was “no significant effect”. The “Effect on Aβ40 secondary structure (CD)” value in assay [4] is listed as “slightly increased β-sheet structure”. Further, the “Effect on Aβ40 fibril morphology (AFM)” value in assay [5] is reported as “much more tangled together”. In addition, the Kd in assay [6] (Aβ40 pH 7.2 + 50 mM SDS) is 25 µM; in assay [6] (Aβ40 pH 7.2, 10 µM peptide), 25 µM.

For the molecule `[Zn+2]` [Zn^2+], the Kd in assay [1] (read-out: Binding affinity) was 1 to 50 µM.
